Experimental data: patent US8278090B1, “Heterotrophic cultivation of hydrocarbon-producing microalgae” (Solazyme, Inc., priority 2008, dated 2012)
Several values for one entry are separate records, joined by “and”; a condition that tells them apart may be missing. Equal values may be shown once.

Tests used:
Assay type in all cases: cell-based
[1] = tested on: Botryococcus braunii UTEX 2441; experiment: Complex nitrogen sources on heterotrophic growth with glucose; conditions: UTEX 2441, 1% glucose + 10 mM Urea, dark, 4 weeks
Experimental: (§1) The following experiment was done with UTEX 572, UTEX 2441, and N-836 in 20 ml of BG11 plus:
(§2) 1% glucose+2 g/L hydrolyzed casein

[2] = tested on: Botryococcus braunii UTEX 572; experiment: as above; conditions: dark, 4 weeks
Experimental: as §1, §2

[3] = tested on: Botryococcus braunii N-836; experiment: Different fixed carbon sources on heterotrophic growth, visual score; design: key to heterotrophic growth score, 0.1% / heterotrophic growth score, 0.5% / heterotrophic growth score, 1%: Growth was scored with +'s by visual examination of the cultures; ++: Growth was scored with +'s by visual examination of the cultures; +++: Growth was scored with +'s by visual examination of the cultures; ++++: Growth was scored with +'s by visual examination of the cultures; +++++: Growth was scored with +'s by visual examination of the cultures; conditions: for heterotrophic growth score, 0.1%: N-836, 0.1% carbon source in 1 ml BG11, dark; for heterotrophic growth score, 0.1% / heterotrophic growth score, 0.5% / heterotrophic growth score, 1%: 4 weeks; for heterotrophic growth score, 0.5%: N-836, 0.5% carbon source in 1 ml BG11, dark; for heterotrophic growth score, 1%: N-836, 1% carbon source in 1 ml BG11, dark; for heterotrophic growth on carbon source, in words: N-836, dark
Experimental: (§3) All carbon sources were tested at three different concentrations; 0.1%, 0.5% and 1%. Cultures were grown in 24 well plates for 4 weeks in the dark in 1 ml BG11 plus fixed carbon. Control cultures were grown in BG-11 media under phototrophic conditions without a fixed carbon source. Growth was scored with +'s by visual examination of the cultures (see Table 7). UTEX 572 grew best in glucose, however there was also growth on mannose, galactose and fructose. UTEX 2441 preferred mannose in the dark but there was some growth in galactose, fructose and glycerol.

[4] = tested on: Botryococcus braunii UTEX 2441; experiment: as above; design: key to heterotrophic growth score, 0.1% / heterotrophic growth score, 0.5% / heterotrophic growth score, 1%: Growth was scored with +'s by visual examination of the cultures; ++: Growth was scored with +'s by visual examination of the cultures; +++: Growth was scored with +'s by visual examination of the cultures; ++++: Growth was scored with +'s by visual examination of the cultures; +++++: Growth was scored with +'s by visual examination of the cultures; conditions: for heterotrophic growth score, 0.1%: UTEX 2441, 0.1% carbon source in 1 ml BG11, dark; for heterotrophic growth score, 0.1% / heterotrophic growth score, 0.5% / heterotrophic growth score, 1%: 4 weeks; for heterotrophic growth score, 0.5%: UTEX 2441, 0.5% carbon source in 1 ml BG11, dark; for heterotrophic growth score, 1%: UTEX 2441, 1% carbon source in 1 ml BG11, dark; for heterotrophic growth on carbon source, in words: UTEX 2441, dark
Experimental: as §3

[5] = tested on: Botryococcus braunii UTEX 572; experiment: as above; design: key to heterotrophic growth score, 0.1% / heterotrophic growth score, 0.5% / heterotrophic growth score, 1%: Growth was scored with +'s by visual examination of the cultures; ++: Growth was scored with +'s by visual examination of the cultures; +++: Growth was scored with +'s by visual examination of the cultures; ++++: Growth was scored with +'s by visual examination of the cultures; +++++: Growth was scored with +'s by visual examination of the cultures; conditions: for heterotrophic growth score, 0.1%: UTEX 572, 0.1% carbon source in 1 ml BG11, dark; for heterotrophic growth score, 0.1% / heterotrophic growth score, 0.5% / heterotrophic growth score, 1%: 4 weeks; for heterotrophic growth score, 0.5%: UTEX 572, 0.5% carbon source in 1 ml BG11, dark; for heterotrophic growth score, 1%: UTEX 572, 1% carbon source in 1 ml BG11, dark; for heterotrophic growth on carbon source, in words: UTEX 572, dark
Experimental: as §3

[6] = tested on: Botryococcus braunii UTEX 2441; experiment: Mixotrophic growth with fixed carbon source in BG11 media in light; conditions: for DCW / DCW mg/15 ml.: three weeks
Experimental: (§4) Modified BG-11 (17.65 mM NaNO3, 0.23 mM K2PO4, 0.3 mM MgSO4.7H2O, 0.25 mM CaCl2.2H2O, 0.189 mM Na2CO3, 0.03 mM citric acid monohydrate, 0.023 mM ferric ammonium citrate, 0.046 mM H3BO3, 9.15 μM MnCl2.4H2O, 0.77 μM ZnSO4.7H2O, 0.32 μM CuSO4.5H2O, 0.21 μM CoCl2.6H2O, 1.62 μM NaMoO4.2H2O, 2.69 μM Na2EDTA, 9 mg/l Tricine, 1.99 μM Thiamine-HCl, 0.006 μM Cyanocobalamine, 0.044 μM Calcium Pantothenate, 0.29 μM p-aminobenzoic acid, soil water). […] Dry cell weight (DCW) were measured after three weeks for the glycerol samples.

[7] = tested on: Botryococcus braunii UTEX 572; experiment: as above; conditions: for DCW / DCW mg/15 ml.: three weeks
Experimental: as §4

[8] = UTEX 572, 1% glucose + 10 mM Urea
[9] = UTEX 2441, 0.75% glycerol in BG11, light
[10] = UTEX 2441, 1% glycerol in BG11, light
[11] = UTEX 2441, 1.5% glycerol in BG11, light
[12] = UTEX 572, 0.75% glycerol in BG11, light
[13] = UTEX 572, 1% glycerol in BG11, light
[14] = UTEX 572, 1.5% glycerol in BG11, light

Row | SMILES | heterotrophic growth score, 0.1% [3] | heterotrophic growth score, 0.5% [3] | heterotrophic growth score, 1% [3] | heterotrophic growth score, 0.1% [4] | heterotrophic growth score, 0.5% [4] | heterotrophic growth score, 1% [4] | heterotrophic growth score, 0.1% [5] | heterotrophic growth score, 0.5% [5] | heterotrophic growth score, 1% [5] | heterotrophic growth on carbon source, in words [3] | heterotrophic growth on carbon source, in words [4] | heterotrophic growth on carbon source, in words [5] | also measured
1 | NC(N)=O [Urea, urea] | – | – | – | – | – | – | – | – | – | – | – | – | DCW [1]: 0.10 g/L and 0.067 g/L; DCW mg/3 m1. [1]: 0.3 mg/3 m1 and 0.2 mg/3 m1; increased growth over glucose only culture ([2]; UTEX 572, 10 mM urea + 1% glucose): 76%; DCW [2, 8]: 0.467 g/L; DCW mg/3 m1. [2, 8]: 1.4 mg/3 m1
2 | CC(=O)[O-].[Na+] [acetate, sodium acetate] | + | + | + | ++ | ++ | ++ | + | + | + | – | – | – | –
3 | O=C[C@@H](O)[C@H](O)[C@H](O)CO [arabinose] | + | + | + | ++ | ++ | ++ | + | + | + | – | – | – | –
4 | O=C(CO)[C@@H](O)[C@H](O)[C@H](O)CO [fructose] | + | + | ++ | ++ | +++ | +++ | ++ | ++ | ++ | heterotrophic growth | some growth | growth | –
5 | O=C[C@H](O)[C@@H](O)[C@@H](O)[C@H](O)CO [galactose] | ++ | ++ | ++ | ++ | +++ | ++ | ++ | +++ | +++ | heterotrophic growth | some growth | growth | –
6 | OCC(O)CO [glycerol] | + | + | + | ++ | +++ | +++ | + | + | + | – | some growth | – | DCW [6, 9]: 0.273 g/L and 0.286 g/L; DCW mg/15 ml. [6, 9]: 4.1 mg/15 ml and 4.3 mg/15 ml; DCW [6, 10]: 0.22 g/L and 0.32 g/L; DCW mg/15 ml. [6, 10]: 3.3 mg/15 ml and 4.8 mg/15 ml; DCW [6, 11]: 0.24 g/L and 0.286 g/L; DCW mg/15 ml. [6, 11]: 4.3 mg/15 ml and 4.7 mg/15 ml; increased growth with glycerol ([6]; UTEX 2441, light, mixotrophic): 66%; DCW [7, 12]: 0.273 g/L and 0.206 g/L; DCW mg/15 ml. [7, 12]: 4.1 mg/15 ml and 3.1 mg/15 ml; DCW [7, 13]: 0.267 g/L and 0.20 g/L; DCW mg/15 ml. [7, 13]: 4.0 mg/15 ml and 3.0 mg/15 ml; DCW [7, 14]: 0.24 g/L and 0.293 g/L; DCW mg/15 ml. [7, 14]: 3.6 mg/15 ml and 4.4 mg/15 ml; difference in growth with or without glycerol ([7]; UTEX 572, light, mixotrophic): marginal difference
